For orientation: IC50 means the midpoint of a concentration-inhibition curve. For orientation: EC50 means the concentration at which the effect is half-maximal. Higher therefore signals weaker potency. What is called MIC is the lowest concentration found to suppress growth. What is called inhibition is how much of the control response was suppressed.

Here are results for 15 molecules from article PMC8877224, “Diverse Secondary Metabolites from the Coral-Derived Fungus Aspergillus hiratsukae SCSIO 5Bn1003” (Marine Drugs, 2022).

In one experiment the test system is MCF-7 (breast cancer). Description: in vitro cytotoxicity against MCF-7. Conditions: Homo sapiens. Type of experiment: cell-based. The method, then: (§1) All compounds were evaluated for their in vitro cytotoxicity against four human cancer lines, SF-268 (human glioblastoma carcinoma), MCF-7 (breast cancer), HepG-2 (liver cancer), and A549 (lung cancer), as well as antioxidative activity, α-glucosidase inhibitory activity, and antimicrobial activity against the bacteria Staphylococcus aureus and Bacillus subtilis (Tables S1–S3).
(§2) The details of the experimental procedures for cytotoxic and antioxidative bioassays were described previously in our former paper.

Experiment [1] in a line: antioxidative activity (DPPH radical scavenging). The following applies: for EC50: DPPH radical scavenging; for Inhibition rate antioxidative activity: primary screening, 100 μM. The procedure:
as §1, §2

A further experiment has as its system Staphylococcus aureus. Description: antibacterial assay, Mueller–Hinton broth microdilution. In kind it is cell-based. The following applies: for inhibition at 50 µM: primary screening, read-out: Inhibition rate Staphylococcus aureus. The method, then:
(§3) All the compounds were tested for antibacterial activity against Staphylococcus aureus and Bacillus subtilis using the Mueller–Hinton broth microdilution method. Ciprofloxacin was used as a positive control.
(Dilution methods test growth across graded concentrations, often in twofold steps.)

The test system of the next experiment is Bacillus subtilis. Described as above. Type of experiment: cell-based. The following applies: for inhibition at 50 µM: primary screening, read-out: Inhibition rate Bacillus subtilis. The method, then: as §3
Another experiment deals with A549 (lung cancer). Description: in vitro cytotoxicity against A549. The following applies: Homo sapiens. In kind it is cell-based. The procedure:
as §1, §2

Experiment [2] relates to intersegmental vessel (ISV) formation. Description: zebrafish assay for in vivo anti-angiogenic activity. The following applies: zebrafish embryos. The procedure:
The maintenance of zebrafish and the collection of embryos followed the method in the literature. One day after fertilization, the embryos were dechorionated with tweezers in a Petri dish coated with 1% agarose and distributed into small Petri dishes (35 × 10 mm) with 3 mL of assay solution, depending on the drug treatment. The embryos receiving a mixture of DMSO (0.1%) were used as the vehicle-treated control and were equivalent to a “no treatment” group. All the experiments were repeated at least three times, with 20 embryos per group.

The next experiment deals with HepG-2 (liver cancer). Description: in vitro cytotoxicity against HepG-2. Type of experiment: cell-based. The following applies: Homo sapiens. The method, then: as §1, §2
Experiment [3] concerns SF-268 (human glioblastoma carcinoma). Description: in vitro cytotoxicity against SF-268. In kind it is cell-based. The method, then: as §1, §2
The mark [4] stands for this setting: MCF7, MCF-7 cells, mean ± SD, read-out: IC50 MCF-7.
Setting [5] is: Table 4, mean ± SD, read-out: MIC Staphylococcus aureus.
[6] abbreviates: Table 4, mean ± SD, read-out: MIC Bacillus subtilis.
The mark [7] stands for this setting: A549, primary screening, 50 μM, read-out: Inhibition rate A549.
Setting [8] is: HepG2, primary screening, 50 μM, read-out: Inhibition rate HepG-2.
[9] abbreviates: SF-268, primary screening, 50 μM, read-out: Inhibition rate SF-268.
Where [10] appears, read: MCF7, primary screening, 50 μM, read-out: Inhibition rate MCF-7.
Where [11] appears, read: read-out: MIC against Bacillus subtilis.
Setting [12] is: read-out: MIC against Staphylococcus aureus.

Like-named read-outs stand apart in the source and are kept apart here. Where a SMILES comes first, the peptide text is derived from it. [ ]: non-standard residue; d: D form. NMeF = CN[CH](Cc1ccccc1)C(=O)O; 2Abz = Nc1ccccc1C(=O)O

Regarding `COc1cccc2c1C(=O)c1c(O)c3c(c(O)c1C2=O)C[C@@](O)(C(=O)CO)C[C@@H]3O[C@H]1C[C@H](N)[C@H](O)[C@H](C)O1` [Adriamycin, reference compound], in the experiment with MCF-7 (breast cancer) (setting [4]), the IC50 came to 2.02 ± 0.04 µM.

As to `O=C1O[C@H]([C@@H](O)CO)C(O)=C1O` [Ascorbic acid, reference compound], the EC50 in experiment [1] was 11.3 ± 0.56 µM.

As to `O=C(O)c1cn(C2CC2)c2cc(N3CCNCC3)c(F)cc2c1=O` [Ciprofloxacin, reference compound], the MIC came out at 0.07 ± 0.001 µg/mL with Staphylococcus aureus (setting [5]) and 0.09 ± 0.003 µg/mL in the experiment on Bacillus subtilis (setting [6]).

Turning to `CN1C(=O)C(Cc2ccc(O)cc2)NC(=O)CNC(=O)c2ccccc2NC(=O)C1Cc1ccccc1` (stereo not drawn) [Compound 1, asperhiratide] (cyclo([2Abz]GY[NMeF]); configuration not given here), the inhibition at 50 µM stood at 4.4% in the experiment on A549 (lung cancer) (setting [7]); 0.38% in the experiment on HepG-2 (liver cancer) (setting [8]); 0.82% in experiment [3] (setting [9]); 5.22% with Staphylococcus aureus; 3.87% in the experiment with Bacillus subtilis; 1.03% in the experiment on MCF-7 (breast cancer) (setting [10]). Also, the “inhibitory effect on intersegmental vessel (ISV) formation” value in experiment [2] is reported as “weak inhibitory effect”. In addition, in experiment [1], the “Inhibition rate antioxidative activity” value is reported as 4.30%.

As to `CC1C(=O)OCC1CC(OC(=O)c1ccccc1)C(C)(O)C1CCC2(O)C3=CC(=O)C4CC(O)C(O)CC4(C)C3CCC12C` [Compound 2, 2S,3R,5R,9S,10R,13R,14R,17S,20R,22R,24S,27S-29-norcyasterone-22-O-benzoate], the inhibition at 50 µM in the experiment on A549 (lung cancer) (setting [7]) came out at 1.21%; with HepG-2 (liver cancer) (setting [8]), 1.45%; in experiment [3] (setting [9]), 1.43%; in the experiment on Staphylococcus aureus it was 4.34%; with Bacillus subtilis, 0.67%; in the experiment with MCF-7 (breast cancer) (setting [10]), 1.01%. The “Inhibition rate antioxidative activity” value in experiment [1] was 1.60%.

Turning to `C=C1CCC2CC1C2(C)C1CCC(C)C(=O)O1` (stereo not drawn) [Compound 3, asperhiratone], the inhibition at 50 µM with A549 (lung cancer) (setting [7]) was 0.83%; in the experiment on HepG-2 (liver cancer) (setting [8]), 0.13%; in experiment [3] (setting [9]), 2.31%; with Staphylococcus aureus it was 7.98%; with Bacillus subtilis, 9.17%; in the experiment with MCF-7 (breast cancer) (setting [10]) it was 3.24%. The “Inhibition rate antioxidative activity” value in experiment [1] is 2.00%.

On to `CC(C)[C@H](C)C[C@@H](O)[C@](C)(O)C1CC[C@@]2(O)C3=CC(=O)C4C[C@@H](O)CC[C@]4(C)C3CC[C@]12C` (stereo partly drawn) [Compound 4, schizaeasterone A], for which the inhibition at 50 µM in the experiment on A549 (lung cancer) (setting [7]) was 8.6%; with HepG-2 (liver cancer) (setting [8]) it was 1.57%; in experiment [3] (setting [9]), 8.79%; with Staphylococcus aureus, 19.4%; with Bacillus subtilis it was 5.23%; in the experiment on MCF-7 (breast cancer) (setting [10]), 19.1%. Moreover, the “Inhibition rate antioxidative activity” value in experiment [1] is on record as 2.80%.

For the molecule `C=C1C[C@]2(O)[C@@]3(C)CCC(=O)C(C)(C)C3=C(O)C(=O)[C@@]2(C)[C@@H]2C(=O)O[C@@](C)(C(=O)OC)C(=O)[C@@]12C` [Compound 5, terretonin], the inhibition at 50 µM with A549 (lung cancer) (setting [7]) was found to be 2.97%; in the experiment on HepG-2 (liver cancer) (setting [8]) it was 3.52%; in experiment [3] (setting [9]) it was 4.58%; in the experiment on Staphylococcus aureus it was 11.8%; in the experiment on Bacillus subtilis, 8.18%; in the experiment with MCF-7 (breast cancer) (setting [10]), 5.62%. Moreover, the “Inhibition rate antioxidative activity” value in experiment [1] is on record as 1.90%.

Regarding `CC(C)[C@H](C)/C=C/[C@@H](C)[C@H]1CCC2C3=CC(=O)O[C@@]3(O)CC[C@@]21C` (stereo partly drawn) [Compound 6, demethylincisterol A2], the inhibition at 50 µM was determined as 0.41% in the experiment with A549 (lung cancer) (setting [7]); 81.4% in the experiment on HepG-2 (liver cancer) (setting [8]); 93.2% in experiment [3] (setting [9]); 29.4% with Staphylococcus aureus; 79.6% in the experiment on Bacillus subtilis; 92.2% in the experiment with MCF-7 (breast cancer) (setting [10]). The IC50 was found to be 50.2 ± 0.54 µM with A549 (lung cancer) (A549 cells, mean ± SD, read-out: IC50 A549); 43.6 ± 2.08 µM in the experiment on HepG-2 (liver cancer) (HepG2, HepG-2 cells, mean ± SD, read-out: IC50 HepG-2); 34.8 ± 0.95 µM in experiment [3] (SF-268 cells, mean ± SD, read-out: IC50 SF-268); 39.4 ± 0.52 µM in the experiment on MCF-7 (breast cancer) (setting [4]). Also, the MIC with Bacillus subtilis (setting [6]) came out at 10.3 ± 0.76 µg/mL; in the experiment with Bacillus subtilis (setting [11]), 10.3 ± 0.76 µM. Further, in experiment [1], the “Inhibition rate antioxidative activity” value is recorded as 1.00%.

`CC(C)=CC=CC(C)C1CCC2(C)CC3C(C)=CC(=O)C3C(C(=O)O)=CCC12` (stereo not drawn) [Compound 7, asperophiobolin E]: the inhibition at 50 µM in the experiment on A549 (lung cancer) (setting [7]) is 0.58%; in the experiment with HepG-2 (liver cancer) (setting [8]), 40.7%; in experiment [3] (setting [9]), 9.64%; in the experiment with Staphylococcus aureus it was 82.4%; in the experiment on Bacillus subtilis, 94.3%; in the experiment with MCF-7 (breast cancer) (setting [10]), 38.8%. The MIC with Staphylococcus aureus (setting [5]) worked out at 103 ± 4.5 µg/mL; in the experiment with Staphylococcus aureus (setting [12]) it was 103 ± 4.5 µM; in the experiment with Bacillus subtilis (setting [6]), 17 ± 1.25 µg/mL; in the experiment on Bacillus subtilis (setting [11]), 17 ± 1.25 µM. The “Inhibition rate antioxidative activity” value in experiment [1] was determined as 3.60%.

With `COC(=O)[C@]1(Cc2ccc(O)c(CC=C(C)C)c2)OC(=O)C(O)=C1c1ccc(O)cc1` [Compound 8, butyrolactone I], the IC50 is 32.3 ± 2.36 µM in the experiment with A549 (lung cancer) (A549, read-out: IC50 A549); 31 ± 3.04 µM with HepG-2 (liver cancer) (HepG2, read-out: IC50 HepG-2); 31.4 ± 1.98 µM in experiment [3] (SF-268, read-out: IC50 SF-268); 38.6 ± 2.48 µM with MCF-7 (breast cancer) (MCF7, read-out: IC50 MCF-7). Moreover, the inhibition at 50 µM was found to be 21.5% with A549 (lung cancer) (A549, read-out: Inhibition rate A549); 69.1% with HepG-2 (liver cancer) (HepG2, read-out: Inhibition rate HepG-2); 41.9% in experiment [3] (SF-268, read-out: Inhibition rate SF-268); 84.4% in the experiment on Staphylococcus aureus; 91.3% in the experiment with Bacillus subtilis; 50.7% in the experiment with MCF-7 (breast cancer) (MCF7, read-out: Inhibition rate MCF-7). Moreover, the MIC with Staphylococcus aureus (read-out: MIC Staphylococcus aureus) was found to be 59.54 ± 0.5 µg/mL; with Staphylococcus aureus (setting [12]) it was 59.54 ± 0.5 µM; with Bacillus subtilis (read-out: MIC Bacillus subtilis) it was 5.3 ± 0.29 µg/mL; in the experiment with Bacillus subtilis (setting [11]), 5.3 ± 0.29 µM. For the same molecule, the “Inhibition rate antioxidative activity” value in experiment [1] came out at 2.50%.

For the molecule `COC(=O)[C@]1(Cc2ccc(O)c(CC(O)C(C)(C)O)c2)OC(=O)C(O)=C1c1ccc(O)cc1` (stereo partly drawn) [Compound 9, butyrolactones VI], the inhibition at 50 µM in the experiment on A549 (lung cancer) (setting [7]) worked out at 0.29%; in the experiment on HepG-2 (liver cancer) (setting [8]), 5.43%; in experiment [3] (setting [9]), 8.47%; in the experiment with Staphylococcus aureus, 19.6%; in the experiment with Bacillus subtilis, 3.76%; in the experiment on MCF-7 (breast cancer) (setting [10]), 17.7%. Also, it took 12.2 ± 0.78 µM to reach a half-maximal effect in experiment [1] (EC50). Further, the IC50 in experiment [1] (as given in abstract, read-out: radical scavenging activities against DPPH, IC50) came to 12.2 ± 0.78 µM.

As to `C=CC(C)(C)[C@@]12C[C@H]3C(=O)Nc4ccccc4C(=O)N3[C@H]1N(C=O)c1ccccc12` [Compound 10, epi-aszonalenins B], the inhibition at 50 µM was 0.73% in the experiment on A549 (lung cancer) (setting [7]); 6.7% with HepG-2 (liver cancer) (setting [8]); 32.9% in experiment [3] (setting [9]); 12.6% in the experiment on Staphylococcus aureus; 0.3% with Bacillus subtilis; 42.2% in the experiment with MCF-7 (breast cancer) (setting [10]). For the same molecule, the “Inhibition rate antioxidative activity” value in experiment [1] is listed as 0.40%.

For the molecule `CCCCCCCc1c(O)cc(CC=C(C)C)c(O)c1C=O` [Compound 11, flavoglaucin], the inhibition at 50 µM in the experiment with A549 (lung cancer) (setting [7]) came to 1.53%; with HepG-2 (liver cancer) (setting [8]), 0.39%; in experiment [3] (setting [9]) it was 0.81%; in the experiment with Staphylococcus aureus, 13%; in the experiment with Bacillus subtilis, 17.5%; in the experiment with MCF-7 (breast cancer) (setting [10]), 0.49%. In addition, in experiment [1], the “Inhibition rate antioxidative activity” value was 18.20%.

Regarding `COC(=O)C1=C[C@@H](O)[C@@H](O)[C@H](O)C1` [Compound 13, methyl shikimate], the inhibition at 50 µM came out at 0.36% in the experiment with A549 (lung cancer) (setting [7]); 0.66% with HepG-2 (liver cancer) (setting [8]); 0.59% in experiment [3] (setting [9]); 11.8% in the experiment on Staphylococcus aureus; 7.69% in the experiment on Bacillus subtilis; 0.66% with MCF-7 (breast cancer) (setting [10]). Besides, in experiment [1], the “Inhibition rate antioxidative activity” value is on record as 32.90%.
